Columns and labels:
plasma active GLP-1 = assay: Plasma active GLP-1 concentration change from baseline (ELISA); type: in vivo, human; conditions: patients with T2DM; for GLP-1 Baseline (value before dosing): day 1 before dosing; for increase of plasma active GLP-1 AUEC0-24h compared with placebo group: after multiple dosing; for △GLP-1 TRmax,ss / △GLP-1 TRmax: median (range)
Description: Blood samples for GLP-1 activity evaluation were collected at the same time points as for PK. 2 mL blood samples were collected for GLP-1 activity detection (20 μL DPP-4i was added to blood-collecting tubes beforehand). The tubes were placed on ice until centrifugation. The blood samples were centrifuged at 2-8°C, 1500 g for 10 minutes within 1 hour after blood collection. After centrifugation, the blood samples were evenly divided into two aliquots and stored at -80 ± 10°C. Plasma active GLP-1 concentrations were determined using a validated ELISA method. Linear calibration curves were obtained in the concentration range of 0.017-276 pM ([31]).
The change of GLP-1 concentration from baseline (△GLP-1) was calculated as follows:
Δ [GLP-1] = [GLP-1] (t) - [GLP-1] (0)
The calculated parameters for GLP-1 activity were as follows: the baseline GLP-1 value before dosing (Baseline), Rmax, TRmax, AUEC0-t, AUEC0-24h, GLP-1 concentration change at 2 h after lunch (△GLP-1-6h), GLP-1 concentration change at 2 h after dinner (△GLP-1-12h), Rmin on day 14, and the average response on day 14 (Ravg).

DPP-4 = molecular target: T1, DPP-4 (Homo sapiens, UniProt P27487); assay: Population PK/PD model (Sigmoid-Emax, DPP-4 inhibition); type: in vivo
T1 construct: from tissue; host or cells: human plasma (K2-EDTA blood from T2DM patients)
Source text: As a result of data with an absolute value of CWRES greater than 5 being excluded, only 554 blood concentrations of cetagliptin were included in development of the PopPK/PD model. A direct-effect model was used to build the PK/PD model; and the model formula was as follows:
DPP−4 inhibition (%)=Emax*C^γ/(EC50γ+C^γ)

[1] = final model estimate, patients with T2DM

T1 sequence (P27487 39-766 limits assumed): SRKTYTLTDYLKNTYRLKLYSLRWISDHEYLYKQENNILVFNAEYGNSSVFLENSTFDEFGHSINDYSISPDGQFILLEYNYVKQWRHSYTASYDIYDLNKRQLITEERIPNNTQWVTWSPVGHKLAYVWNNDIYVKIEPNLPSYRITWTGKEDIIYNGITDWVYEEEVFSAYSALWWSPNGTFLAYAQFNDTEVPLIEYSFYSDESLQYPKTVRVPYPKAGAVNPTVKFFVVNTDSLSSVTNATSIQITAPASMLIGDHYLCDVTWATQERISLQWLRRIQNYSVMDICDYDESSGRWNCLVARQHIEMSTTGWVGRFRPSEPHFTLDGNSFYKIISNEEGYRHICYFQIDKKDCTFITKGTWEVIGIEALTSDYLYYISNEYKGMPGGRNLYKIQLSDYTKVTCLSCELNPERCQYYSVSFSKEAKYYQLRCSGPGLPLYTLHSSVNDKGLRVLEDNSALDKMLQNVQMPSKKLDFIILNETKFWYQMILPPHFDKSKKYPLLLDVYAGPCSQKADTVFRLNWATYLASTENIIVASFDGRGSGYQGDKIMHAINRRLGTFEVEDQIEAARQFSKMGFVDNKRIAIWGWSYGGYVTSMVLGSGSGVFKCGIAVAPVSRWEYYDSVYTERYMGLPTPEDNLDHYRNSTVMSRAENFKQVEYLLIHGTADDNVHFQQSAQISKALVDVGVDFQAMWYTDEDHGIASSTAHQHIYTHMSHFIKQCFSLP

## C[C@@H]1c2cnc(C(F)(F)F)n2CCN1C(=O)C[C@H](N)Cc1cc(F)c(F)cc1F.O=P(O)(O)O [Cetagliptin, cetagliptin]
Plasma active GLP-1; 50 mg group
  GLP-1 Baseline (value before dosing): 0.491 ± 0.815 pM
Plasma active GLP-1; 50 mg once daily
  accumulation ratios of Rmax and AUEC0-24 h for plasma active GLP-1: about 1.5
  increase of plasma active GLP-1 AUEC0-24h compared with placebo group: 2.20 fold
Plasma active GLP-1; 50 mg oral once daily, day 14
  R0h,ss (baseline plasma active GLP-1 on day 14): 1.787 ± 1.046 pM
  △GLP-1-6h (change at 2 h after lunch): 4.145 ± 0.920 pM
  △GLP-1-12h (change at 2 h after dinner): 3.880 ± 1.641 pM
  △GLP-1 AUEC0-24h: 57.8 ± 22.7 pM·h
  △GLP-1 Ravg,ss: 2.408 ± 0.944 pM
  △GLP-1 Rmax,ss: 5.891 ± 1.692 pM
  △GLP-1 TRmax,ss: 5.00 (5.00-12.00) h
Plasma active GLP-1; 50 mg oral once daily, day 14, listed as cetagliptin
  R0h,ss (baseline plasma active GLP-1 on day 14): 1.787 pM
Plasma active GLP-1; 50 mg oral, day 1
  △GLP-1-6h (change at 2 h after lunch): 2.457 ± 1.135 pM
  △GLP-1-12h (change at 2 h after dinner): 2.887 ± 0.981 pM
  △GLP-1 AUEC0-24h: 42.6 ± 10.0 pM·h
  △GLP-1 Rmax: 3.866 ± 1.031 pM
  △GLP-1 TRmax: 5.00 (5.00-12.00) h
Plasma active GLP-1; 100 mg group
  GLP-1 Baseline (value before dosing): 0.434 ± 0.393 pM
Plasma active GLP-1; 100 mg once daily
  accumulation ratios of Rmax and AUEC0-24 h for plasma active GLP-1: about 1.5
  increase of plasma active GLP-1 AUEC0-24h compared with placebo group: 3.36 fold
Plasma active GLP-1; 100 mg oral once daily, day 14
  R0h,ss (baseline plasma active GLP-1 on day 14): 1.858 ± 1.186 pM
  △GLP-1-6h (change at 2 h after lunch): 7.006 ± 3.171 pM
  △GLP-1-12h (change at 2 h after dinner): 5.648 ± 1.810 pM
  △GLP-1 AUEC0-24h: 88.2 ± 29.6 pM·h
  △GLP-1 Ravg,ss: 3.673 ± 1.234 pM
  △GLP-1 Rmax,ss: 7.868 ± 2.565 pM
  △GLP-1 TRmax,ss: 6.00 (5.00-12.00) h
Plasma active GLP-1; 100 mg oral once daily, day 14, listed as cetagliptin
  R0h,ss (baseline plasma active GLP-1 on day 14): 1.858 pM
Plasma active GLP-1; 100 mg oral, day 1
  △GLP-1-6h (change at 2 h after lunch): 4.269 ± 2.232 pM
  △GLP-1-12h (change at 2 h after dinner): 3.600 ± 2.410 pM
  △GLP-1 AUEC0-24h: 63.1 ± 34.3 pM·h
  △GLP-1 Rmax: 6.026 ± 3.823 pM
  △GLP-1 TRmax: 5.00 (5.00-12.00) h
DPP-4; bootstrap median
  tvEC50 (typical value of concentration for 50% of maximal effect): 5.120
  tvEmax (typical value of maximum pharmacodynamic effects): 91.78
  tvGam (typical value of Hill coefficient): 1.008
DPP-4; [1]
  tvEC50 (typical value of concentration for 50% of maximal effect): 5.120
  tvEmax (typical value of maximum pharmacodynamic effects): 91.78
  tvGam (typical value of Hill coefficient): 1.008

From publication PMC10961402, “Safety, tolerability, pharmacokinetics and pharmacokinetic-pharmacodynamic modeling of cetagliptin in patients with type 2 diabetes mellitus” (Frontiers in Endocrinology, 2024)
